According to patent EP0297815B1, “Fluorine containing renin inhibitors” (PFIZER INC., priority 1987, dated 1989):

Molecular target: T1, renin (Homo sapiens, UniProt P00797)
T1 sequence (P00797 67-406): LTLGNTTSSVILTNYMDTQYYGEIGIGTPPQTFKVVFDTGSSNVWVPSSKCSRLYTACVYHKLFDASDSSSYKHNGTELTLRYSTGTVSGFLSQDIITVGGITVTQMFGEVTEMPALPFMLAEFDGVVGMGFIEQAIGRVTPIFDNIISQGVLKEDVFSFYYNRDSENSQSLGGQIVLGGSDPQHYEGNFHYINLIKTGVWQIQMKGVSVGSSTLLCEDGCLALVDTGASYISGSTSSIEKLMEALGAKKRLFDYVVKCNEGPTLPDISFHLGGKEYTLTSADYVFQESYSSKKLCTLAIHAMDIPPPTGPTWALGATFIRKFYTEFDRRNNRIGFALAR
Assay: renin inhibitory potency
Assay type: biochemical
Conditions: compared with the more retained 2R,5R isomer separated by HPLC
Excerpt: The activity of the compounds of the present invention as inhibitors of the angiotensinogen-cleaving activity of renin may be determined by studying (1) their ability to inhibit the angiotensinogen-cleaving activity of renin in vitro and (2) their ability to antagonize the exogenous renin-induced pressor response in vivo.

In the case of `CCCC[C@H](NC(=O)[C@H](Cc1ccccc1)NC(=O)N1CCOCC1)C(=O)N[C@@H](CC1CCCCC1)C(=O)C(F)(F)[C@@H](CC(C)C)C(=O)OCC` [2S,5S product, ethyl (2S,5S)-2-isobutyl-3,3-difluoro-4-keto-5-N-(N-[morpholinocarbonyl-L-phenylalanyl]-L-norleucyl)-amino-6-cyclohexylhexanoate], the renin inhibitory potency is reported as “more active”.
